Source: BindingDB's records for doi:10.1021/jm100498u (Massachusetts General Hospital, 2010)

Biological target: T1, Gamma-aminobutyric acid receptor subunit alpha-1/beta-2/gamma-2 (Homo sapiens, UniProt P14867+P18507+P47870)
T1 sequence (P14867 whole entry): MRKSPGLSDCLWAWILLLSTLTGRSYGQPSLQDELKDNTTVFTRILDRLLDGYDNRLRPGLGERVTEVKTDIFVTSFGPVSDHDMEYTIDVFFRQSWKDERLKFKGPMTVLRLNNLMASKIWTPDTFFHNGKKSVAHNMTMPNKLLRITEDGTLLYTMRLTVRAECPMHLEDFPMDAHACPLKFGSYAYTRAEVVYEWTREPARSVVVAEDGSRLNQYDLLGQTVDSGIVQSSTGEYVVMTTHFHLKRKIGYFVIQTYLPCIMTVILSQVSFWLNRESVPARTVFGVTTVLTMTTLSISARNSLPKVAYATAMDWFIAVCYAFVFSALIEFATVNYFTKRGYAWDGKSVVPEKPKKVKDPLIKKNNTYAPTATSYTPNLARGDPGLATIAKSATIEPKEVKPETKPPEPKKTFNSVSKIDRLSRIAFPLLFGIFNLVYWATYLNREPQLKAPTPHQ
T1 sequence (P18507 whole entry): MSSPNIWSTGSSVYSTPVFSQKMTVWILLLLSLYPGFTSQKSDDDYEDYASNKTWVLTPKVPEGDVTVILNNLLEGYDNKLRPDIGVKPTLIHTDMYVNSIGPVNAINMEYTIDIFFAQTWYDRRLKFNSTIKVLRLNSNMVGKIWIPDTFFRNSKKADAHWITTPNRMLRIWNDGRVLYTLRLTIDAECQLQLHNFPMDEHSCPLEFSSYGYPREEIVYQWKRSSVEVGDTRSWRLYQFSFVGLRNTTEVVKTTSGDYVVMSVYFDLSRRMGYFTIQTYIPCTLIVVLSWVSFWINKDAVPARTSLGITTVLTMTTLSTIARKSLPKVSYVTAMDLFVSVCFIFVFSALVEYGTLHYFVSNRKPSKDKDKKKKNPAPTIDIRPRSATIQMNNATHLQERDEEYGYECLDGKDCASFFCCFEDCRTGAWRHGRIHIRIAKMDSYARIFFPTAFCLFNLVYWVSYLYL
T1 sequence (P47870 whole entry): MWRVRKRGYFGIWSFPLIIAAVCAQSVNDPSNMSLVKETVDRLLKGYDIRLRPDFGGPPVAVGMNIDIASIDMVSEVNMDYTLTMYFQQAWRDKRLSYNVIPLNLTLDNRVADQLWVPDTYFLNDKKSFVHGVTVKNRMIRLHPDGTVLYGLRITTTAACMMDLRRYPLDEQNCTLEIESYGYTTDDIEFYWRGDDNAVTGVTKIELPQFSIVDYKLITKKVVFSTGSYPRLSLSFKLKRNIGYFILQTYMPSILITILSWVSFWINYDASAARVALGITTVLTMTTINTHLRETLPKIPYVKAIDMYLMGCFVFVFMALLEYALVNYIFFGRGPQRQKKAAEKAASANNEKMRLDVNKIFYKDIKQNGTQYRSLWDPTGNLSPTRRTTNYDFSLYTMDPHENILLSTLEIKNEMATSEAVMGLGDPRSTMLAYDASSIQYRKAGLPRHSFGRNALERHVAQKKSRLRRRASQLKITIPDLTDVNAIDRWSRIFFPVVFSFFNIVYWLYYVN
Experiment: Agonist activity at human GABA-A alpha-1-beta-2-gamma-2 receptor expressed in Xenopus laevis

| Structure (SMILES) | EC50 [µM] |
| --- | --- |
| CCOC(=O)c1cncn1[C@H](C)c1ccc(C2(C(F)(F)F)N=N2)cc1 | 30 |
| CCOC(=O)c1cncn1[C@@H](C)c1ccc(C2(C(F)(F)F)N=N2)cc1 | 6.4 |
